Laboratory results taken from patent publication US20160257697A1, “THIOPHENE-SUBSTITUTED TETRACYCLIC COMPOUNDS AND METHODS OFUSE THEREOF FOR THE TREATMENT OF VIRAL DISEASES” (priority 2013, published 2016).
Where two headings read alike, the source gives them in different places.

Columns and labels:
Assay in all cases: microbe, parasite or virus in culture
Assay type in all cases: cell-based, Hepatitis C virus (HCV)
HCV replicon 1B = details: replicon 1B, Replicon Assay B
HCV replicon 1AQ30D = details: Replicon Assay B
HCV replicon 1AY93H = details: Replicon Assay A
Outline: (§1)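 HCV RNA levels were calculated from Ct values (minus intercept, divided by slope) of a Neo primer/probe standard curve, with cyclophilin quantified the same way. Cells were seeded at 2000/well and incubated with compound for 3 days in 5% serum and 0.5% DMSO.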

HCV replicon 2B = details: Replicon Assay A
Outline: as §1

HCV replicon 1A = details: replicon 1A, Replicon Assay A
Outline: as §1

[1] = Hepatitis C virus, read-out: 1A Q30D IC50 (nM), replicon 1AQ30D
[2] = Hepatitis C virus, read-out: 1A Y93H IC50 (nM), replicon 1AY93H
[3] = Hepatitis C virus, read-out: 2B IC50 (nM), replicon 2B
[4] = read-out: 1A Y93H IC50, replicon 1AY93H
[5] = replicon 1AQ30D, read-out: 1A Q30D IC50
[6] = replicon 1AY93H, read-out: 1A Y93H IC50
[7] = read-out: 1A Q30D IC50, replicon 1AQ30D

| Structure (SMILES) | IC50 (HCV replicon 1B; Hepatitis C virus) | IC50 (HCV replicon 1AQ30D; [1]) | IC50 (HCV replicon 1AY93H; [2]) | IC50 (HCV replicon 2B; [3]) | IC50 (HCV replicon 1A; Hepatitis C virus) | IC50 (HCV replicon 1AY93H; [4]) | IC50 (HCV replicon 2B; read-out: 2B IC50, replicon 2B) | IC50 (HCV replicon 1A) | IC50 (HCV replicon 1B) | IC50 (HCV replicon 1AQ30D; [5]) | IC50 (HCV replicon 1AY93H; [6]) | IC50 (HCV replicon 2B; replicon 2B, read-out: 2B IC50) | IC50 (HCV replicon 1AQ30D; [7]) |
| --- | --- | --- | --- | --- | --- | --- | --- | --- | --- | --- | --- | --- | --- |
| COC(=O)N[C@H](C(=O)N1CCC[C@H]1c1ncc(-c2cc(F)c3c(c2)OC(c2ccc(C(F)F)s2)n2c-3cc3cc(-c4cnc([C@@H]5CCCN5C(=O)[C@@H](NC(=O)OC)C(C)C)[nH]4)ccc32)[nH]1)C(C)C (single isomer, unassigned) [Compound 46] | 0.001 nM | 17.1 nM | 2.6 nM | 1.79 nM | 0.0029 nM |  |  |  |  |  |  |  |  |
| COC(=O)N[C@H](C(=O)N1CCC[C@H]1c1ncc(-c2cc(F)c3c(c2)OC(c2cc4nccnc4s2)n2c-3cc3cc(-c4cnc([C@@H]5CCCN5C(=O)[C@@H](NC(=O)OC)C(C)C)[nH]4)ccc32)[nH]1)C(C)C (single isomer, unassigned) [Compound 48] | 0.0017 nM | 0.54 nM |  |  |  | 0.027 nM | 0.016 nM | 0.0019 nM |  |  |  |  |  |
| COC(=O)N[C@H](C(=O)N1CCC[C@H]1c1ncc(-c2cc(F)c3c(c2)OC(c2ccc(CC4CC4)s2)n2c-3cc3cc(-c4cnc([C@@H]5CCCN5C(=O)[C@@H](NC(=O)OC)C(C)C)[nH]4)ccc32)[nH]1)C(C)C (single isomer, unassigned) [Compound 54] |  |  |  |  |  |  |  | 0.002 nM | 0.0012 nM | 0.2 nM | 0.005 nM | 0.03 nM |  |
| COC(=O)N[C@H](C(=O)N1CCC[C@H]1c1ncc(-c2cc(F)c3c(c2)OC(c2ccc(C4(O)CC4)s2)n2c-3cc3cc(-c4cnc([C@@H]5CCCN5C(=O)[C@@H](NC(=O)OC)C(C)C)[nH]4)ccc32)[nH]1)C(C)C (single isomer, unassigned) [Compound 60] | 0.0013 nM | 0.35 nM | 0.014 nM | 0.023 nM | 0.0015 nM |  |  |  |  |  |  |  |  |
| COC(=O)N[C@H](C(=O)N1CCC[C@H]1c1ncc(-c2cc(F)c3c(c2)OC(c2ccc(C(C)(C)C)s2)n2c-3cc3cc(-c4cnc([C@@H]5CCCN5C(=O)[C@@H](NC(=O)OC)C(C)C)[nH]4)ccc32)[nH]1)C(C)C (single isomer, unassigned) [Compound 63] |  |  |  |  |  |  |  | 0.0032 nM | 0.0024 nM | 0.34 nM | 0.01 nM | 0.27 nM |  |
| COC(=O)N[C@H](C(=O)N1CCC[C@H]1c1ncc(-c2cc(F)c3c(c2)OC(c2cc(F)c(C4CC4)s2)n2c-3cc3cc(-c4cnc([C@@H]5CCCN5C(=O)[C@@H](NC(=O)OC)C(C)C)[nH]4)ccc32)[nH]1)C(C)C (single isomer, unassigned) [Compound 72] | 0.0015 nM | 0.78 nM |  |  |  | 0.01 nM | 0.089 nM | 0.0026 nM |  |  |  |  |  |
| COC(=O)NC(C(=O)N1CCC[C@H]1c1ncc(-c2ccc3c(c2)cc2n3C(c3ccc(C4CC4)s3)Oc3cc(-c4cnc([C@@H]5CCCN5C(=O)[C@@H](NC(=O)OC)C(C)C)[nH]4)cc(F)c3-2)[nH]1)C(C)(C)F (single isomer, unassigned) [Compound 75] | 0.0031 nM | 0.27 nM |  |  |  | 0.021 nM | 0.041 nM | 0.003 nM |  |  |  |  |  |
| COCCc1ccc(C2Oc3cc(-c4cnc([C@@H]5CCCN5C(=O)[C@@H](NC(=O)OC)C(C)C)[nH]4)cc(F)c3-c3cc4cc(-c5cnc([C@@H]6CCCN6C(=O)[C@@H](NC(=O)OC)C(C)C)[nH]5)ccc4n32)s1 (single isomer, unassigned) [Compound 82] |  |  |  |  |  |  |  | 0.0011 nM | 0.0013 nM | 0.26 nM | 0.014 nM | 0.15 nM |  |
| COC(=O)N[C@H](C(=O)N1CCC[C@H]1c1ncc(-c2cc(F)c3c(c2)OC(c2ccc(C(C)(C)O)s2)n2c-3cc3cc(-c4cnc([C@@H]5CCCN5C(=O)[C@@H](NC(=O)OC)C(C)C)[nH]4)ccc32)[nH]1)C(C)C (single isomer, unassigned) [Compound 84] |  | 0.5 nM |  |  |  | 0.012 nM | 0.012 nM | 0.0033 nM | 0.0025 nM |  |  |  |  |
| COC(=O)N[C@H](C(=O)N1CCC[C@H]1c1ncc(-c2cc(F)c3c(c2)OC(c2ccc(C#CC4CC4)s2)n2c-3cc3cc(-c4cnc([C@@H]5CCCN5C(=O)[C@@H](NC(=O)OC)C(C)C)[nH]4)ccc32)[nH]1)C(C)C (single isomer, unassigned) [Compound 86] | 0.0016 nM | 0.11 nM |  |  |  | 0.003 nM | 0.033 nM | 0.0016 nM |  |  |  |  |  |
| COC(=O)N[C@H](C(=O)N1[C@@H]2C[C@@H]2C[C@H]1c1ncc(-c2cc(F)c3c(c2)OC(c2ccc(C4CC4)s2)n2c-3cc3cc(-c4cnc([C@@H]5C[C@H]6C[C@H]6N5C(=O)[C@@H](NC(=O)OC)C(C)C)[nH]4)ccc32)[nH]1)C(C)C (single isomer, unassigned) [Compound 87] | 0.0013 nM | 0.15 nM |  |  | 0.0012 nM | 0.002 nM | 0.19 nM |  |  |  |  |  |  |
| COC(=O)N[C@H](C(=O)C1CCC[C@H]1c1ncc(-c2ccc3c(c2)cc2n3C(c3ccc(C(F)(F)F)s3)Oc3cc(-c4cnc([C@@H]5CCCN5C(=O)[C@@H](NC(=O)OC)C(C)C)[nH]4)cc(F)c3-2)[nH]1)C(C)C (single isomer, unassigned) [Compound 89] | 0.0015 nM | 0.33 nM |  |  | 0.001 nM | 0.033 nM | 0.063 nM |  |  |  |  |  |  |
| COC(=O)N[C@H](C(=O)N1CCC[C@H]1c1ncc(-c2cc(F)c3c(c2)OC(c2ccc(C(=O)N(C)C)s2)n2c-3cc3cc(-c4cnc([C@@H]5CCCN5C(=O)[C@@H](NC(=O)OC)C(C)C)[nH]4)ccc32)[nH]1)C(C)C (single isomer, unassigned) [Compound 104] | 0.0051 nM | 1.11 nM |  |  |  | 0.046 nM | 0.073 nM | 0.0043 nM |  |  |  |  |  |
| COC(=O)NC(C(=O)N1CCC[C@H]1c1ncc(-c2cc(F)c3c(c2)OC(c2ccc(C)s2)n2c-3cc3cc(-c4cnc([C@@H]5CCCN5C(=O)[C@@H](NC(=O)OC)C5CCOCC5)[nH]4)ccc32)[nH]1)C(C)(C)F (single isomer, unassigned) [Compound 105] |  |  |  |  |  |  |  | 0.0015 nM | 0.0029 nM | 0.03 nM | 0.01 nM | 0.012 nM |  |
| COC(=O)NC(C(=O)N1CCC[C@H]1c1ncc(-c2cc(F)c3c(c2)OC(c2ccc(C)s2)n2c-3cc3cc(-c4cnc([C@@H]5CCCN5C(=O)[C@@H](NC(=O)OC)C5CCOCC5)[nH]4)ccc32)[nH]1)C(C)(C)F (single isomer, unassigned) [Compound 106] | 0.0015 nM |  | 0.16 nM | 0.35 nM | 0.0021 nM |  |  |  |  |  |  |  | 0.03 nM |
| COC(=O)NC(C(=O)N1CCC[C@H]1c1ncc(-c2cc(F)c3c(c2)OC(c2ccc(C)s2)n2c-3cc3cc(-c4cnc([C@@H]5CCCN5C(=O)[C@@H](NC(=O)OC)C5CCOCC5)[nH]4)ccc32)[nH]1)C(C)(C)F (single isomer, unassigned) [Compound 108] |  |  |  |  |  | 0.25 nM | 0.29 nM | 0.0026 nM | 0.0027 nM |  |  |  | 1.15 nM |
| COC(=O)NC(C(=O)N1CCC[C@H]1c1ncc(-c2cc(F)c3c(c2)OC(c2ccc(C4CC4)s2)n2c-3cc3cc(-c4cnc([C@@H]5CCCN5C(=O)C(NC(=O)OC)C(C)(C)F)[nH]4)ccc32)[nH]1)C(C)(C)F (single isomer, unassigned) [Compound 111] | 0.0017 nM | 0.13 nM |  |  |  | 0.074 nM | 0.038 nM | 0.0032 nM |  |  |  |  |  |
| COC(=O)N[C@H](C(=O)N1CCC[C@H]1c1ncc(-c2ccc3c(c2)cc2n3C(c3ccc(C4CC4)s3)Oc3cc(-c4cnc([C@@H]5CCCN5C(=O)[C@@H](NC(=O)OC)C5CCOCC5)[nH]4)cc(C)c3-2)[nH]1)C(C)C (single isomer, unassigned) [Compound 122] | 0.0023 nM |  |  |  | 0.002 nM | 0.007 nM | 0.003 nM |  |  |  |  |  | 0.029 nM |
| COC(=O)N[C@H](C(=O)N1CCC[C@H]1c1ncc(-c2ccc3c(c2)cc2n3C(c3ccc(C4CC4)s3)Oc3cc(-c4cnc([C@@H]5CCCN5C(=O)[C@@H](NC(=O)OC)C5CCOCC5)[nH]4)cc(C)c3-2)[nH]1)C(C)C (single isomer, unassigned) [Compound 123] |  |  |  |  |  | 0.59 nM | 0.064 nM | 0.0012 nM | 0.0031 nM |  |  |  | 0.38 nM |
